Data from the METLIN SMRT retention time set (Domingo-Almenara et al. 2019).

Experiment: gradient 5% acetonitrile 3 min, to 50% in 2 min, to 85% in 15 min, held 3 min, 100 µL/min
Conditions: column: Zorbax Extend-C18 2.1 x 50 mm; eluents: water / acetonitrile, 0.1% formic acid
Outline: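 Standards, all pure, were combined into mixtures of ~100 molecules and run at 100 μL/min on a Zorbax Extend-C18 column (2.1 × 50 mm, 1.8 μm) with water and acetonitrile, each containing 0.1% formic acid. A coupled quadrupole time-of-flight mass spectrometer operated in positive and negative ionization mode. Retention time values come from computationally picked adduct peaks, each inspected manually.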

Row | SMILES | RP-LC retention time
1 | O=C(CCCc1nc(-c2ccc(Cl)cc2)no1)Nc1nc(-c2ccccc2)cs1 | 1170 s
2 | Cc1ccc(-c2ncc(NC(=O)c3ccc(Br)o3)cn2)cc1 | 1030 s
3 | CNC(=O)N1CCCN(S(C)(=O)=O)CC1 | 533 s
4 | Cc1ccc(S(=O)(=O)NNC(=O)C23CCC(CC2)C3)cc1 | 873 s
5 | Cc1ccc(NC(=O)COc2nc(C)nc3ccccc23)c(Br)c1 | 874 s
6 | O=C1COc2ccccc2N1Cc1nc(-c2ccc(Cl)cc2)no1 | 1070 s
7 | CC(C)NC(=O)C1CCCN(c2nc3ncn(CC(=O)NC4CCCC4)c(=O)c3s2)C1 (stereo not drawn) | 1210 s
8 | CCCn1c(=O)sc2cc(S(=O)(=O)N3CCC(C(=O)Nc4cccc(OC)c4)CC3)ccc21 | 978 s
9 | O=C1CCN(C(=O)c2ccco2)CCCC(CO)CCN1 (stereo not drawn) | 566 s
10 | CCOC(=O)C1CCN(Cc2nc(-c3ccc(N4CCCCCC4)nc3)no2)CC1 | 600 s
11 | COc1ccc(OC)c(NC(=O)N2CC=C(c3cn(C)c4ncccc34)CC2)c1 | 882 s
12 | COc1ccc(NC(=O)C2CCN(S(C)(=O)=O)c3cc(Cl)ccc3O2)cc1 (stereo not drawn) | 918 s
13 | O=C(Nc1ccc(OCc2nnc(-c3ccccc3)o2)cc1)c1cccnc1 | 743 s
14 | COc1ccc(S(=O)(=O)N2CCC(C(=O)Nc3nnc(C4CCCO4)o3)CC2)cc1 (stereo not drawn) | 658 s
15 | COc1ccc(-c2nc(-c3cccc(-c4ccnn4C)c3)no2)c(C)c1 | 1210 s
16 | Cc1nc(C)c(C(=O)N2CCC(Oc3ccc(-c4noc(-c5ccccc5)n4)cc3)C2)s1 (stereo not drawn) | 1080 s
17 | COc1ccc(NC(=O)Cn2cnc(-c3nc(C)cs3)c2)cc1Cl | 699 s
18 | COc1cccc(-c2nnc(N)o2)c1 | 674 s
19 | COc1cc(C(=O)N2CCN(c3cc(C)n4cnnc4n3)CC2)cc(OC)c1OC | 575 s
20 | COc1ccc(-n2ccn3cc(-c4ccc(F)cc4F)nc3c2=O)cc1Cl | 929 s
21 | CCN1C(=O)COc2ccc(-c3noc(Cc4ccc(Cl)cc4)n3)cc21 | 1100 s
22 | Cc1nc2cc3c(cc2n1CC(=O)NCCOc1ccc(Cl)cc1)OCCO3 | 674 s

Row | SMILES | RP-LC retention time
23 | CCCc1cnc2c(c1SC(C(C)=O)C(=O)N(C)C)c(=O)n(C)c(=O)n2C (stereo not drawn) | 720 s
24 | CCOc1ccc(-c2noc(Cn3ccn4nc(-c5ccc(Cl)cc5)cc4c3=O)n2)cc1OC | 1130 s
25 | CC1(C(=O)NC2CCCC2)CN(S(C)(=O)=O)CC(=O)N1Cc1ccc(Cl)cc1 (stereo not drawn) | 834 s
26 | COc1ccc(-c2nc3ncccn3c2Nc2ccc(C)c(C)c2)cc1 | 784 s
27 | Cc1ccc(-n2c(=O)c3c(cc(C)n3C)n(CC(=O)Nc3cccc(Cl)c3C)c2=O)cc1 | 918 s
28 | O=C(Nc1ccc(F)cc1Br)c1cnc(-c2ccccc2)nc1-c1ccncc1 | 935 s
29 | Cc1cc2nc(N3CCOCC3)n(CC(=O)Nc3ccc(N(C)C)cc3)c(=O)c2n1C | 623 s
30 | COc1ccc(OC)c(NC(=O)C2(CCO)CCN(c3ncccn3)C2)c1 (stereo not drawn) | 631 s
31 | CCc1ccc(-c2nc(-c3ccc(-n4ccnc4)nc3)no2)cc1 | 882 s
32 | CC(C)NC(=O)c1ccc(OCC2CCCN(C(=O)c3ccc(F)cc3F)C2)cc1 (stereo not drawn) | 869 s
33 | CC(C)c1ccc(N2C=C(C(=O)N3CCCCC3)S(=O)(=O)c3ccccc32)cc1 | 1040 s
34 | CCS(=O)(=O)Nc1ccc2nc(N3CCN(c4ccc(F)cc4)CC3)cc(C(=O)O)c2c1 | 653 s
35 | COc1ccc(Cl)cc1S(=O)(=O)N(C)CC1(C)CCOCC1 | 829 s
36 | COc1cccc2c1OC1(C)CC2NC(=O)N1c1cccc(C(=O)N2CCN(c3ccccn3)CC2)c1 (stereo not drawn) | 588 s
37 | CCC(C)NC(=O)N1CCc2c(c(-c3nc(-c4cccc(F)c4)no3)nn2C)C1 (stereo not drawn) | 904 s
38 | CC1CCN(c2ncnc3c2cnn3CC(=O)Nc2ccc(Cl)cc2)CC1 | 697 s
39 | CCCCC(CC)C(=O)Nc1nc(-c2ccc(C(C)C)cc2)cs1 (stereo not drawn) | 1390 s
40 | Cc1cccc(-n2c(=O)c3c(cc(C)n3C)n(CC(=O)Nc3cc(Cl)ccc3C)c2=O)c1 | 960 s
41 | COC(=O)c1ccc(OC)c(Cn2cnc3c(-c4ccccc4C)csc3c2=O)c1 | 1060 s
42 | CC(C)n1nnc2cc(C(=O)N(C)CC(=O)Nc3ccc(Cl)cc3)ccc21 | 793 s
43 | CCn1cc(S(=O)(=O)N2CCC(c3noc(-c4ccccc4)n3)C2)cn1 (stereo not drawn) | 881 s
44 | c1cnn(-c2ccc(-c3noc(-c4ccc5c(c4)OCO5)n3)cn2)c1 | 1170 s

Row | SMILES | RP-LC retention time
45 | O=C(Nc1ccccc1)Nc1ccc2nnc(C3CC3)n2c1 | 703 s
46 | CC(C)NC(=O)C1CCCCN1S(=O)(=O)c1ccc(Br)cc1 (stereo not drawn) | 969 s
47 | COc1ccc(NC(=O)c2cnc3c(c2)c(=O)n(C)c(=O)n3-c2ccccc2)cc1F | 858 s
48 | CC(C)(C)NC(=O)C1CCN(S(=O)(=O)c2cc(-c3noc(C4CCC4)n3)cs2)CC1 | 1030 s
49 | Cc1ccc(NS(=O)(=O)c2cc3n(c2)CCCNC3=O)cc1 | 651 s
50 | CCOc1ccccc1NC(=O)Cn1ncc2c(N3CCN(c4ccccn4)CC3)ncnc21 | 628 s
51 | O=C1CN(S(=O)(=O)c2cc(F)ccc2F)C2(CCCCC2)CN1CC1CC1 | 959 s
52 | Cc1ccccc1CNC(=O)C1(C)CCN(S(=O)(=O)c2ccc(F)cc2)CC1 | 925 s
53 | O=C(CSc1nnc2ccc(-c3cccnc3)nn12)NCc1cccs1 | 588 s
54 | O=C(NC1CCCC1)C1CCCN(c2ccc(=O)n(-c3cccc(Cl)c3)n2)C1 (stereo not drawn) | 845 s
55 | CCCN(C)c1nccn2c(=O)n(CC(=O)Nc3ccc(C)cc3F)nc12 | 719 s
56 | O=C(O)CNC(=O)c1c(O)c2ccccc2n(Cc2ccccc2)c1=O | 989 s
57 | COc1ccc(-c2cn3c(CC(=O)N4CCN(c5cccc(Cl)c5)CC4)csc3n2)cc1OC | 835 s
58 | Cc1nc(C)c(C(=O)N2CCC(Oc3nc4c(C)ccc(C)c4s3)CC2)s1 | 1090 s
59 | O=C(c1ccc(CS(=O)(=O)c2cccc(C(F)(F)F)c2)o1)N1CCN(c2ccccn2)CC1 | 645 s
60 | Cc1ccc(-c2noc(Cn3c(=O)n(C(C)C)c(=O)c4ccccc43)n2)cc1C | 1220 s
61 | CC1CCCCN1S(=O)(=O)c1ccc2nc(N3CCN(c4ccccn4)CC3)ccc2c1 (stereo not drawn) | 674 s
62 | CCOc1ccc(S(=O)(=O)N2CCCC(C(=O)NCc3ccncc3)C2)cc1C (stereo not drawn) | 659 s
63 | COc1ccc(CNC(=O)Cn2cnc3c(sc4nc(-c5ccccc5)ccc43)c2=O)cc1 | 950 s
64 | O=S(=O)(NCc1ccccc1C(F)(F)F)c1c[nH]c2ncccc12 | 785 s
65 | O=C(c1ccccn1)N1CCCC(OCc2nc(C3CC3)no2)C1 (stereo not drawn) | 619 s
66 | CC1CCN(S(=O)(=O)c2ccc(-c3nnc(C(C)C)o3)o2)CC1 | 964 s

Row | SMILES | RP-LC retention time
67 | COc1ccc2c(c1)C1(CCN(C(=O)Nc3ccccc3C)C1)C(=O)N2C (stereo not drawn) | 750 s
68 | Cc1nn(CC(=O)NCCN2CCCCC2)c(=O)c2nc(-c3ccccc3)sc12 | 623 s
69 | Cc1nnc(-c2cc(C)n(CC(=O)Nc3ccc(C)c(C)c3)c2C)o1 | 809 s
70 | CN(C)c1ccc(NC(=O)Cn2nc3c(Oc4ccc(Cl)cc4)nccn3c2=O)cc1 | 674 s
71 | COc1cccc(NC(=O)c2cc(C)n3nc(C)cc3n2)c1 | 928 s
72 | Cc1cc(=O)n(CC(=O)Nc2ccc(Cl)cc2)c(N2CCCC2)n1 | 672 s
73 | CCCNC(=O)Cn1c(=O)c2cccn2c2ccc(F)cc21 | 729 s
74 | O=C(NCC1CCN(C(=O)COc2ccccc2)CC1)c1ccccc1C(F)(F)F | 753 s
75 | Cc1nc(-c2csc(S(=O)(=O)N3CCC(C(=O)Nc4cccc(F)c4)CC3)c2)no1 | 925 s
76 | Fc1cc(F)c2nc(NCc3ccco3)sc2c1 | 879 s
77 | COc1ccc(NC(=O)C2c3cc(OC)c(OC)cc3C(=O)N3CCc4ccccc4C23)cc1OC (stereo not drawn) | 744 s
78 | Cn1cccc1C(=O)N1CCc2nn(CC#N)c(=O)n2CC1 | 622 s
79 | Cc1ccc2nc(C(=O)NCc3cc(F)cc(F)c3)cn2c1 | 695 s
80 | COc1ccc(C2CC(=O)Nc3c(C(=O)O)cn(-c4ccc(F)cc4)c32)cc1OC (stereo not drawn) | 734 s
81 | CCOc1ccc(C(=O)NC2(c3nc(CC)no3)CCCCC2)cc1OCC | 990 s
82 | COCCNC(=O)C1CCN(C2=NS(=O)(=O)C(c3ccc(Cl)cc3)=C2C)CC1 | 725 s
83 | COC(=O)C1=CN(c2cc(F)ccc2C)c2ccc(F)cc2S1(=O)=O | 898 s
84 | Cc1ccc(C(=O)N2CCN(c3ccc(-c4noc(C5CC5)n4)cc3)CC2)s1 | 1010 s
85 | CCCN1C(=O)COc2ccc(-c3csc(NC(=O)COc4ccc(Cl)cc4Cl)n3)cc21 | 1210 s
86 | Cc1ccc(C#CC(C)(O)C(C)(C)C)cn1 (stereo not drawn) | 722 s
87 | O=C1NCCCCCCN(C(=O)Nc2ccccc2F)[C@H]2CCC[C@@H]12 | 805 s
88 | CCCN(C)C(=O)c1ccc(-n2cc(CNC(=O)C3CCC3)cn2)cc1 | 695 s
